What is called Hill slope is a measure of the steepness of the concentration-response curve. One may read the IC50 as the concentration at which inhibition is half-maximal. The low end stands for higher potency, the high end for lower potency. As a reminder, the EC50 is the concentration at which the effect is half-maximal.

We go through four molecules from paper PMC3752001 (European journal of pharmacology, 2012).

“And” between values parts separate entries of the source, which are not always exact repeats. Equal entries are not always repeated. Structures can show the parent of a compound that is named as a salt. Where two headings read alike, the source gives them in different places.

For experiment [1], the target named is high sensitivity (HS) α4β2 nicotinic acetylcholine receptors (Homo sapiens, UniProt P17787+P43681). Briefly: Two-electrode voltage clamp, high sensitivity. It counts as cell-based. For orientation: Two-electrode voltage clamp holds a large cell at a set potential and records current.
The target in experiment [2] is low sensitivity (LS) α4β2 nicotinic acetylcholine receptors (Homo sapiens, UniProt P17787+P43681). Put plainly: Two-electrode voltage clamp, low sensitivity. The class given is cell-based. As to conditions: for Imax (%) potentiation: dFBr co-applied with 100 μM acetylcholine (EC75).
Experiment [3] addresses HS β2D218A α4β2 receptors (Homo sapiens, UniProt P17787+P43681, D218A). Briefly: Two-electrode voltage clamp, HS β2D218A mutant preparation in Xenopus oocytes. The class given is cell-based. As to conditions: for nH ± S.E.M.: ACh concentration/response, HSβ2D218A.
Experiment [4] deals with LS β2D218A α4β2 receptors (Homo sapiens, UniProt P17787+P43681, D218A). Briefly: Two-electrode voltage clamp, LS β2D218A mutant preparation in Xenopus oocytes. It counts as cell-based. To be noted: for nH ± S.E.M.: ACh concentration/response, LSβ2D218A.
For experiment [5], the target named is α7 nicotinic acetylcholine receptors (Homo sapiens, UniProt P36544). Briefly: Two-electrode voltage clamp, α7 receptors in Xenopus oocytes. It counts as cell-based.
Experiment [6] relates to human and rat 5-hydroxytryptamine transporters (SERT). To be noted: HEPES concentrations greater than 1 mM; ref Li et al., 2002; cited from earlier work.

Sequence of high sensitivity (HS) α4β2 nicotinic acetylcholine receptors (P43681 27-627): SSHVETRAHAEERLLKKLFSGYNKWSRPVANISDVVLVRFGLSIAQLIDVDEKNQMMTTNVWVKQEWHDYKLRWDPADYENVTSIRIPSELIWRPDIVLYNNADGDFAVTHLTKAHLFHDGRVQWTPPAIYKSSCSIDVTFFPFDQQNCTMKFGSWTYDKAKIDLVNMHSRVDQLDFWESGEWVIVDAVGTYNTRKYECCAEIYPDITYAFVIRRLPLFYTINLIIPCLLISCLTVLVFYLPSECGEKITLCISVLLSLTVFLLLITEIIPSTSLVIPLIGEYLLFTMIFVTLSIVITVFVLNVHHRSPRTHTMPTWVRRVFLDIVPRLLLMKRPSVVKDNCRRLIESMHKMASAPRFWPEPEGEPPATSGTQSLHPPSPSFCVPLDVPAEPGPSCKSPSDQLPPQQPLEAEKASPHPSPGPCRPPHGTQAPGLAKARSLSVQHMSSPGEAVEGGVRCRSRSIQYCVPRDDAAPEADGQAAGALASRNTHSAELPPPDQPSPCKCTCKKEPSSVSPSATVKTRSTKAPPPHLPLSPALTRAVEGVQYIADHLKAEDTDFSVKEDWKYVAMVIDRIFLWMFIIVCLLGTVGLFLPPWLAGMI
Sequence of high sensitivity (HS) α4β2 nicotinic acetylcholine receptors (P17787 26-502): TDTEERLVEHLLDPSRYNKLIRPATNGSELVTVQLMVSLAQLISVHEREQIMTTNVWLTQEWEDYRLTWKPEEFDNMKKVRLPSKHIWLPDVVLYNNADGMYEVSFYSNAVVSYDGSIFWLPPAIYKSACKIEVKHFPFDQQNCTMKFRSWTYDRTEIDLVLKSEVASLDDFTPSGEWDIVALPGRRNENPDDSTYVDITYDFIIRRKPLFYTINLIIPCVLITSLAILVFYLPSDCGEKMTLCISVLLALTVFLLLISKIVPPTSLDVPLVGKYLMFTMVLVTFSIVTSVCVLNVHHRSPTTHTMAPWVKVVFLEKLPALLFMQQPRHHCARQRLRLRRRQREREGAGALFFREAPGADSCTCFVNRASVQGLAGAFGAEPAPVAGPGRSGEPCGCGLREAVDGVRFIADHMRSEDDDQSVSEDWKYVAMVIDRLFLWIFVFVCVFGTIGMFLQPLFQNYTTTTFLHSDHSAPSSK
Sequence of HS β2D218A α4β2 receptors (P43681 27-627): as the sequence (P43681 27-627) above
Sequence of HS β2D218A α4β2 receptors (P17787 26-502 D218A): as the sequence (P17787 26-502) above, with D193A counted along it
Sequence of low sensitivity (LS) α4β2 nicotinic acetylcholine receptors (P43681 27-627): as the sequence (P43681 27-627) above
Sequence of low sensitivity (LS) α4β2 nicotinic acetylcholine receptors (P17787 26-502): as the sequence (P17787 26-502) above
Sequence of LS β2D218A α4β2 receptors (P43681 27-627): as the sequence (P43681 27-627) above
Sequence of LS β2D218A α4β2 receptors (P17787 26-502 D218A): as the sequence (P17787 26-502) above, with D193A counted along it
Sequence of α7 nicotinic acetylcholine receptors (P36544 23-502): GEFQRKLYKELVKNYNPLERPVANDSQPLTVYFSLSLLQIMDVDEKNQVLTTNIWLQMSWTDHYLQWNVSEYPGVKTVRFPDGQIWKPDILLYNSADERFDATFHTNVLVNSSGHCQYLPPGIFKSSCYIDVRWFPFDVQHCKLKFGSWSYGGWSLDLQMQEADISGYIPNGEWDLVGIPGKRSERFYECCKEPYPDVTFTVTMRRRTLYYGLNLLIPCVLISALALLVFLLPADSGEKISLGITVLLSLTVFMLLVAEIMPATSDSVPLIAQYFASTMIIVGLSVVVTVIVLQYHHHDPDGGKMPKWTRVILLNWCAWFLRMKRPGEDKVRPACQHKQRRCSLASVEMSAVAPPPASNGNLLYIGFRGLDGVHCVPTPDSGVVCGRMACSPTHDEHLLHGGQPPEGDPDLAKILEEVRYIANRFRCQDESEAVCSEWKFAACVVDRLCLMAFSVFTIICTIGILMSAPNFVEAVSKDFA

As to “Tris (hydroxymethyl)-aminomethane hydrochloride”, the “inhibition of acetylcholine response” value in experiment [1] (10 mM Tris co-applied with 10 μM acetylcholine, HS, phosphate ND-96) was found to be 50%. Also, the “inhibition of the dFBr potentiated acetylcholine induced response” value in experiment [1] (10 mM Tris, with 1 μM dFBr and acetylcholine, HS, phosphate ND-96) is on record as “about 50%”. For the same molecule, the “current induced by Tris alone” value in experiment [1] (Tris in phosphate buffer in the absence of acetylcholine) is given as “did not induce currents”. The “effect of Tris on acetylcholine response” value in experiment [2] (Tris ≤ 10 mM co-applied with 100 μM acetylcholine, LS, phosphate ND-96) is “only slightly inhibited”. The “effect of Tris on the dFBr potentiated response” value in experiment [2] (Tris ≤ 10 mM, with 1 μM dFBr and acetylcholine, LS, phosphate ND-96) is “only slightly inhibited”.

In the case of `CC(=O)OCC[N+](C)(C)C` [ACh, acetylcholine chloride], in experiment [1], the “change of acetylcholine pEC50” value is listed as “not significantly changed”. The “nH ± S.E.M.” value in experiment [1] was 0.9 ± 0.2 and 1.0 ± 0.2; in experiment [2] it was 1.2 ± 0.1 and 1.2 ± 0.2; in experiment [3] (HEPES ND-96 buffer) it was 1.1 ± 0.3; in experiment [3] (phosphate ND-96 buffer) it was 0.9 ± 0.3; in experiment [4] (HEPES ND-96 buffer), 1.0 ± 0.1; in experiment [4] (phosphate ND-96 buffer), 0.8 ± 0.2. The same molecule came in with a Hill slope in experiment [5] (acetylcholine, α7, phosphate ND-96 buffer) of 0.79 ± 0.13.

The molecule `O=S(=O)(O)CCN1CCN(CCO)CC1` [HEPES, 4-(2-hydroxyethyl)-1-piperazineethanesulfonic acid] returned an IC50 in experiment [1] of 430 µM. In experiment [1] (100 μM HEPES, HS, phosphate ND-96), the “potentiation of the acetylcholine-induced Imax currents” value is on record as 194%. Moreover, in experiment [1] (HEPES applied alone to α4β2 expressing oocytes (data not shown)), the “current induced by HEPES alone” value is “no induced current”. Also, the “maximum potentiation of acetylcholine induced responses” value in experiment [1] (HEPES co-applied with 10 μM acetylcholine, HS, 2 mM phosphate ND-96, pH 7.4) stood at 190%. Moreover, the “effect of HEPES on acetylcholine response” value in experiment [2] (HEPES co-applied with 100 μM acetylcholine, LS, phosphate ND-96) was “only a slight inhibition of the response with no observable potentiation”. Besides, the “potentiation by HEPES” value in experiment [3] (HEPES co-applied with 10 μM acetylcholine, HS β2D218A, phosphate ND-96) was “not potentiated”; in experiment [4] (HEPES co-applied with 100 μM acetylcholine, LS β2D218A, phosphate ND-96), “remained insensitive”. For the same molecule, in experiment [5] (HEPES ≤ 10 mM co-applied with 1 mM acetylcholine, α7), the “effect of HEPES on responses to acetylcholine” value is “little observable effect”. Moreover, in experiment [6], the “decrease of SERT currents” value is given as 10–50%.

Regarding `C=CC(C)(C)c1[nH]c2cc(Br)ccc2c1CCNC` [dFBr, Desformylflustrabromine · HCl], the results for the EC50 in experiment [1], in experiment [1] (EC50 (potentiation)) and in experiment [2] were 3.2 µM, 2.5 µM and 1.3 µM, respectively. Further, the IC50 in experiment [1] is 79 µM; in experiment [1] (IC50 (inhibition phase)), 50 µM; in experiment [2] it was 6.3 µM. For the same molecule, the “Imax (%) potentiation” value was 370% and 360% in experiment [1]; 260% in experiment [2] (LS, HEPES ND-96 buffer); 370% in experiment [2] (LS, phosphate ND-96 buffer). In addition, the “potentiation by dFBr” value in experiment [1] is reported as around 360%.
